From patent US11524041B2, “Ginkgo diterpene lactone composition” (Jiangsu Kanion Pharmaceutical Co., Ltd., priority 2017, dated 2022)
Structures can show the parent of a compound that is named as a salt.

How the values were obtained:
Assay type in all cases: in vivo
[1] = tested on: mice; assay: Forced swimming experiment for mice; conditions: compositions 9 mg/kg ig, imipramine 50 mg/kg oral, once a day for 5 days, difference of immobility times, X ± S
Protocol: 2.2 Forced swimming experiment for mice: Male mice weighing 20-24 g were selected, grouped and administered in the same manner as in Section 2.1. The experiment was started 30 minutes after the fifth administration. The mice were placed in a graduated cylinder (20 cm in height and 14 cm in diameter) with 30° C. water in the depth of 10 cm. The difference between the two immobility times of the mice themselves were calculated and then statistical analysis was conducted after Ig (X++45) conversion.
(§1) 2.4 Statistical analysis: The data are expressed as (x±s). All data are analyzed by one-way ANOVA using SPSS 19.0 software to determine the significance of the difference.

[2] = tested on: rats; assay: Electric shock avoidance experiment for rats (learned helplessness electric shock model); conditions: compositions 6.26 mg/kg ig, imipramine 33 mg/kg oral, once a day for 35 days, results of the fifth training, X ± S
Description: 2.3 Electric shock avoidance experiment for rats: The anti-depression effect of the drug was observed using a learned helplessness electric shock model. Healthy male rats weighing 180-220 g were selected and randomly divided into normal group, model group, positive drug group and Ginkgo diterpene lactone composition groups A-K, with 10 rats in each group. The rats in the […] were orally administered with the same normal saline every day; the rats in the positive drug group were orally administered with imipramine tablet in a daily dose of 33 mg/kg, and the rats in the Ginkgo diterpene lactone composition groups A-K were administered in a daily dose of 6.26 mg/kg (ig), once a day for 35 consecutive days. The experiment was started 30 minutes after the 30th administration. On the first day of the experiment, “helpless induction” was performed. […] The training was conducted for 5 days, and the number of successful escapes of each rat during training was recorded every day, and the results of the fifth training were counted.
as §1

[3] = tested on: level of oxidative stress of rats; assay: Detection of oxidative stress in serum of rats given alcohol; conditions: rat serum, alcohol 6 g/kg daily, compositions 3 mg/kg iv, edaravone 6.25 mg/kg iv, daily for 5 weeks, n = 10
Protocol: 2.1 Modeling and administration: Healthy male rats were selected and randomly divided into normal group, model group, positive drug group and Ginkgo diterpene lactone composition groups A-K, With the exception of the normal group, the other groups were orally administrated with alcohol with a daily dose of 6 g/kg. Rats in the positive drug group were administrated with edaravone injection (iv) in a daily dose of 6.25 mg/kg, and rats in the Ginkgo diterpene lactone composition groups A-K were administrated in a daily dose of 3 mg/kg (iv), they were continuously administrated or given alcohol for 5 weeks.
2.2 Detection of oxidative stress: After the administration, rats in each group were anesthetized with 10% chloral hydrate, abdominal aortic blood was collected and then subjected to heparin anticoagulation to separate serum; changes of MDA, SOD, GSH and TAC levels in the serum were detected according to the instructions of the kits, and the protein content of each sample was measured using the BCA protein test kit.
2.3 Statistical analysis: The data are expressed as (x±s). All data are analyzed by one-way ANOVA using SPSS 19.0 software to determine the significance of the difference.

[4] = n = 10, listed as imipramine, hydrochloride

## CN(C)CCCN1c2ccccc2CCc2ccccc21 [Imipramine, imipramine hydrochloride]
[1]; n = 10, hydrochloride
  Swimming interval (X + 45) conversion: 4.03 ± 0.05^
[1]; [4]
  Swimming interval (X + 45) conversion: significantly prolonged
[2]; n = 10, hydrochloride
  Accumulative number of successful escapes: 24.5 ± 1.5
[2]; [4]
  Accumulative number of successful escapes: significantly increased

## CC1=NN(c2ccccc2)C(=O)C1 [Edaravone, edaravone]
[3]
  MDA: 59.6 ± 20.6 nmol/mg
  SOD: 769.5 ± 55.5 U/mg
  TAC: 243.6 ± 0.9 U/mg
[3]; listed as edaravone injection
  GSH: significantly corrected
  MDA: significantly corrected
  SOD: significantly corrected
  TAC: significantly corrected
